pIC50: −log10 of the molar value. Where a name gives a salt, the structure may show the parent alone.

In the experiment the target is T1, c-Myc/Max/Ebox DNA (Homo sapiens, UniProt P01106).
T1 construct: his6 (cleaved yes)
T1 sequence (P01106 whole entry): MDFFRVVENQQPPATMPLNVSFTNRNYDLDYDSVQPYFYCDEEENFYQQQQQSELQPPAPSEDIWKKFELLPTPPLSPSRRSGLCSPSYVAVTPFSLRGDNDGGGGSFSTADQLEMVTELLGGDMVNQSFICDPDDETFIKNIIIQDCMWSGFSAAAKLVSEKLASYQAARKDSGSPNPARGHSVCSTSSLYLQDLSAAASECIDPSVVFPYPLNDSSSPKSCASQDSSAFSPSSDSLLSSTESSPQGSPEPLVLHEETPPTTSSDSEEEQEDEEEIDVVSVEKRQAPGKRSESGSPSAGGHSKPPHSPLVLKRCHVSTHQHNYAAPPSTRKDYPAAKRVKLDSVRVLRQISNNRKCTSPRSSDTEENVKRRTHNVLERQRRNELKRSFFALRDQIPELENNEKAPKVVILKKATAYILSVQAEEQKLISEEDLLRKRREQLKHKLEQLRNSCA
The experiment is described as follows: c-Myc/Max/Ebox DNA AlphaScreen Assay. The experiment is classed as binding. As to conditions: calculated IC50; free c-Myc 20 nM, his6-Max 5 nM, biotinylated Ebox oligo 10 nM; 2 hour incubation. As to the method:
Compounds of the invention were assayed for c-Myc/Max/EBox activity as described in the following protocol. Human his6-c-Myc and his6-Max were used with biotinylated DNA containing a single Ebox sequence (biotin[…] (SEQ ID NO: 1)) purchased from MWG Operon. Free c-Myc was generated from his6-c-Myc through thrombin cleavage of the his6 tag (SEQ ID NO: 2). For 384-well plate assays, 10 μL of a 2× solution of free c-Myc (20 nM final), Ni^2+ coated Acceptor Beads (25 μg/ml final), and biotinylated Ebox oligo (10 nM final) were added to 384-well plates with a Biotek EL406 liquid handler. 50 nL of compounds from stock plates were added by pin transfer using a Janus Workstation (PerkinElmer), allowing the compounds to interact with c-Myc prior to c-Myc binding with Max. In the current assay, DMSO was not allowed to exceed 2% v/v of the assay. 10 μl of 2× master mix containing streptavidin-coated donor beads (25 μg/ml final) and his6-Max (5 nM) were added. AlphaScreen measurements were performed on an Envision plate reader (PerkinElmer) utilizing the manufacturer's protocol.
Both master mixes were made in room temperature assay buffer (50 mM HEPES, 150 mM NaCl, 0.2% w/v BSA, 0.02% w/v Tween20, 40 μg/ml glycogen, 500 μM DTT, pH 8.0, wherein both DTT and glycogen were added fresh). Alpha beads were added to respective master solutions. All subsequent steps were performed in low light conditions. Solution 1: 2× solution of components with final concentrations of c-Myc Ni-coated Acceptor Beads (25 μg/ml), and biotinylated Ebox oligo (10 nM). Solution 2: 2× solution of streptavidin-coated donor beads (25 μg/ml final) and his6-Max 10 μL. Solution 1 was added to 384-well plate (AlphaPlate-384, PerkinElmer) with Biotek EL406 liquid handler and the plates were centrifuged very briefly. 50 nL of compounds from stock plates were added by pin transfer using a Janus Workstation. Solution 2 (10 μL) was added with the liquid handler. Plates were sealed with foil to block light exposure and prevent evaporation. Plates were very briefly centrifuged followed by 2 hour incubation. AlphaScreen measurements were performed on an Envision 2104 utilizing the manufacturer's protocol. Excitation was at 680 nm for donor bead release of singlet oxygen and emission was read with a bandpass filter from 520-620 nm. Glycogen: Roche Diagnostics #10901393001. Plate 1536: Perkin Elmer, 6004350. Plate 384: Perkin Elmer, 6005350. Nickel-His Alpha Beads: 6760619R. The data from this assay are summarized in Table 2 below (Myc/Max/DNA Activity), where “A” represents a calculated IC50 of less than 500 nM; “B” represents a calculated IC50 of between 500 nM and 5 μM; “C” represents a calculated IC50 of between 5 μM and 10 μM; “D” represents a value of greater than 10 μM, and “NT” represents a compound for which an assay result was not obtained.
`CC(C)NCCC(=O)Nc1sc2c(c1-c1nc(-c3ccc[nH]c3=O)cs1)CCNC2` [Compound 129]: the pIC50 (usually the negative decadic logarithm of the IC50, by convention in mol/L) was more than 6.30.
Turning to `COc1ncccc1-c1csc(-c2c(NC(=O)CCNC(C)C)sc3c2CCNC3)n1` [Compound 127], the pIC50 is more than 6.30.
`COc1cncc(-c2csc(-c3c(NC(=O)CCNC(C)C)sc4c3CCNC4)n2)c1` [Compound 119]: the pIC50 is more than 6.30.
On to `CC(C)NCCC(=O)Nc1sc2c(c1-c1nc(C3=CCNCC3)cs1)CCNC2` [Compound 126], for which the pIC50 is more than 6.30.
To `CC(C)NCCC(=O)Nc1sc2c(c1-c1nc(C(=O)Nc3cccnc3)cs1)CCNC2` [Compound 124, 2-(2-(3-(Isopropylamino)propanamido)-4,5,6,7-tetrahydrothieno[2,3-c]pyridin-3-yl)-N-(pyridin-3-yl)thiazole-4-carboxamide] belongs more than 6.30; to `CC(C)NCCC(=O)Nc1sc2c(c1-c1nc(C(=O)O)cs1)CCNC2` [Compound 101, 2-(2-(3-(isopropylamino)propanamido)-4,5,6,7-tetrahydrothieno[2,3-c]pyridin-3-yl)thiazole-4-carboxylic acid], 5.30 to 6.30.
On to `Cc1cncc(-c2csc(-c3c(NC(=O)CCNC(C)C)sc4c3CCNC4)n2)c1` [Compound 122], for which the pIC50 is more than 6.30.
On to `CC(C)NCCC(=O)Nc1sc2c(c1-c1nc(-c3cncnc3)cs1)CCNC2` [Compound 128], for which the pIC50 is more than 6.30.
`CC(C)NCCC(=O)Nc1sc2c(c1-c1nc(-c3ccccn3)cs1)CCNC2` [Compound 104, 3-(Isopropylamino)-N-(3-(4-(pyridin-2-yl)thiazol-2-yl)-4,5,6,7-tetrahydrothieno[2,3-c]pyridin-2-yl)propanamide]: the pIC50 is more than 6.30.
Take `Cc1cn(-c2csc(-c3c(NC(=O)CCNC(C)C)sc4c3CCNC4)n2)cn1` [Compound 117]: the pIC50 is 5.30 to 6.30.
For `Cc1ccncc1-c1csc(-c2c(NC(=O)CCNC(C)C)sc3c2CCNC3)n1` [Compound 123], the pIC50 is 5.30 to 6.30.
In the case of `COCCNCCC(=O)Nc1sc2c(c1-c1nc(-c3ccccn3)cs1)CCNC2` [Compound 110], the pIC50 is 5.30 to 6.30.
In the case of `CC(=O)Nc1sc2c(c1-c1nc(-c3ccccc3)cs1)CCNC2` [Compound 100, N-(3-(4-phenylthiazol-2-yl)-4,5,6,7-tetrahydrothieno[2,3-c]pyridin-2-yl)acetamide] it was less than 5.00; in that of `CC(C)NCCC(=O)Nc1sc2c(c1-c1nc(C(=O)Nc3ccccc3)cs1)CCNC2` [Compound 113, 2-(2-(3-(isopropylamino)propanamido)-4,5,6,7-tetrahydrothieno[2,3-c]pyridin-3-yl)-N-phenylthiazole-4-carboxamide], less than 5.00.
To `CC(C)NCCC(=O)Nc1sc2c(c1-c1nc(C3=CCOCC3)cs1)CCNC2` [Compound 130, N-(3-(4-(3,6-Dihydro-2H-pyran-4-yl)thiazol-2-yl)-4,5,6,7-tetrahydrothieno[2,3-c]pyridin-2-yl)-3-(isopropylamino)propanamide dihydrochloride] belongs 5.30 to 6.30; to `CC(C)NCCC(=O)Nc1sc2c(c1-c1nc(-c3cncc(F)c3)cs1)CCNC2` [Compound 115], more than 6.30.
Take `CC(C)NCCC(=O)Nc1sc2c(c1-c1nc(-c3cnn(C)c3)cs1)CCNC2` [Compound 114]: the pIC50 was more than 6.30.
In the case of `CC(C)NCCC(=O)Nc1sc2c(c1-c1nc(-c3cccnc3)cs1)CCNC2` [Compound 103] it was more than 6.30.

The values above are taken from US11274103B2, “Compounds for the modulation of MYC activity” (Syros Pharmaceuticals, Inc., priority 2016, dated 2022).
